The assay deals with Glucagon receptor (Homo sapiens, UniProt P47871). Nature of the assay: Antagonist activity at human glucagon receptor.
Chain of Glucagon receptor (P47871 whole entry): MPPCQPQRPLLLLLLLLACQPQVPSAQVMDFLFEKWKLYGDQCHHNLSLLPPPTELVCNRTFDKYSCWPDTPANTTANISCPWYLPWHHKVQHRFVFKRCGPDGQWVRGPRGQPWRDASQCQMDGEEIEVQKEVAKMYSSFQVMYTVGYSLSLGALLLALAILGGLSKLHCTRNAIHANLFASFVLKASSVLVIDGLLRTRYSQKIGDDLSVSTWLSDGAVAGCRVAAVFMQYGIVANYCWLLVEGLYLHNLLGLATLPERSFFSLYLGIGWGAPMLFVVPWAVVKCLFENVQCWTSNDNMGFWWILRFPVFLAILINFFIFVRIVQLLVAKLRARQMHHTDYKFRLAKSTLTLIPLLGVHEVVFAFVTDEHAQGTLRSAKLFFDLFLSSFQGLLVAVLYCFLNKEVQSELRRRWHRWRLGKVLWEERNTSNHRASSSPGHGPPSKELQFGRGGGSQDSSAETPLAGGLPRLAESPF

As to `Fc1ccc(-c2cc(-c3ccc(Cl)cc3Cl)[nH]c2-c2ccncc2)cc1`, 421 nM corresponded to half-maximal inhibition (IC50). Molecule `COc1cccc(-c2cc(-c3ccc(Cl)cc3)[nH]c2-c2ccncc2)c1` had an IC50 of 421 nM. As for `O=[N+]([O-])c1ccc(-c2cc(-c3ccc(F)cc3)c(-c3ccncc3)[nH]2)cc1`, the figure is 50 nM; as for `C=CCOc1ccccc1-c1cc(-c2ccc(Cl)cc2)[nH]c1-c1ccncc1`, 4740 nM.

Consider `Fc1ccc(-c2cc(C3CCCCC3)[nH]c2-c2ccncc2)cc1`, for which half-maximal inhibition (IC50) required 180 nM. As for `Cc1ccc(-c2cc(-c3ccc(F)cc3)c(-c3ccncc3)[nH]2)cc1`, the figure is 1690 nM; as for `CCCOc1ccc(Br)cc1-c1cc(-c2ccc(Cl)cc2)[nH]c1-c1ccncc1`, 1440 nM. As for `Clc1ccc(-c2cc(-c3ccccc3)c(-c3ccncc3)[nH]2)cc1`, the figure is 210 nM; as for `O=C(O)c1ccc(-c2cc(-c3ccc(F)cc3)c(-c3ccncc3)[nH]2)cc1`, 90.2 nM; as for `COc1ccc(-c2cc(-c3ccc(F)cc3)c(-c3ccncc3)[nH]2)cc1`, 2810 nM.

`CCCOc1ccccc1-c1cc(-c2ccc(Cl)cc2)[nH]c1-c1ccncc1`: the IC50 was 2840 nM.

Turning to `Fc1ccc(-c2cc[nH]c2-c2ccncc2)cc1`, the IC50 is 160 nM. To `N#Cc1ccc(-c2cc(-c3ccc(F)cc3)c(-c3ccncc3)[nH]2)cc1` belongs 50 nM; to `CCc1ccc(-c2cc(-c3ccc(F)cc3)c(-c3ccncc3)[nH]2)cc1`, 1360 nM; to `Clc1ccc(-c2cc(-c3cccc(Br)c3)c(-c3ccncc3)[nH]2)cc1`, 80.2 nM.

With `C[S+]([O-])c1ccc(-c2cc(-c3ccncc3)c(-c3ccc(F)cc3)[nH]2)cc1` (stereo not drawn), the concentration for half-maximal inhibition (IC50) was 5.31 nM.

In the case of `Cc1cc(-c2ccc(F)cc2)c(-c2ccncc2)[nH]1`, half-maximal inhibition (IC50) was put at 321 nM. To `Clc1ccc(-c2cc(-c3ccc(Br)cc3)c(-c3ccncc3)[nH]2)cc1` belongs 301 nM; to `Fc1ccc(-c2cc(-c3ccc(Cl)cc3)[nH]c2-c2ccncc2)cc1`, 1400 nM; to `CSc1ccc(C2=NC(c3ccncc3)=C(c3ccc(F)cc3)C2)cc1`, 1230 nM. For the molecule `CCOc1ccccc1-c1cc(-c2ccc(Cl)cc2)[nH]c1-c1ccncc1`, 14200 nM corresponded to half-maximal inhibition (IC50). As for `CCOC(=O)c1ccc(-c2cc(-c3ccc(F)cc3)c(-c3ccncc3)[nH]2)cc1`, the figure is 260 nM; as for `CC(C)COc1ccccc1-c1cc(-c2ccc(Cl)cc2)[nH]c1-c1ccncc1`, 3770 nM. On to `COc1ccc(-c2cc(-c3ccc(Cl)cc3)[nH]c2-c2ccncc2)cc1`, for which the IC50 is 1150 nM. To `C[S+]([O-])c1ccc(C2=NC(c3ccncc3)=C(c3ccc(F)cc3)C2)cc1` (stereo not drawn) belongs 671 nM; to `Fc1ccc(-c2cc(-c3cccc(Cl)c3)[nH]c2-c2ccncc2)cc1`, 421 nM. `Clc1ccc(-c2cc(-c3ccc(Cl)cc3)c(-c3ccncc3)[nH]2)cc1`: the IC50 is 160 nM.

Consider `Nc1ccc(-c2cc(-c3ccc(F)cc3)c(-c3ccncc3)[nH]2)cc1`, for which the IC50 is 190 nM. To `Fc1ccc(-c2cc(-c3ccccc3)[nH]c2-c2ccncc2)cc1` belongs 802 nM; to `Clc1ccc(-c2cc(-c3ccccc3Br)c(-c3ccncc3)[nH]2)cc1`, 1000 nM.

`COc1ccccc1-c1cc(-c2ccc(Cl)cc2)[nH]c1-c1ccncc1`: the IC50 is 2650 nM.

`Fc1ccc(-c2cc(-c3ccc(F)cc3)c(-c3ccncc3)[nH]2)cc1` had an IC50 of 340 nM.

For `CSc1ccc(-c2cc(-c3ccncc3)c(-c3ccc(F)cc3)[nH]2)cc1`, half-maximal inhibition (IC50) was put at 44.1 nM.

(Values after ChEMBL document CHEMBL2434841, “Computational neural network analysis of the affinity of 2-pyridyl-3,5-diaryl pyrroles analogs for the human glucagon receptor using density functional theory” (Med Chem Res, 2013).)
